Tested on: ORYSAT (Rice, Tebonnet)
Assay: Flooded paddy, post-transplant rice tolerance
Format: in vivo, Oryza sativa, (L.) Tebonnet
Details: in vivo
Protocol: Results of herbicide evaluation are expressed on a rating scale (0-9). The scale is based upon a visual observation of plant stand, vigor, malformation, size, chlorosis and overall plant appearance as compared with a control.
The tolerance of transplanted rice to post-transplanted herbicide application is determined as follows: two ten-day-old rice seedlings (cv. Tebonnet) are transplanted into silt loam soil in 32 oz. plastic containers with a diameter of 10.5 cm and no drainage holes. After transplanting, the containers are flooded and the water level is maintained at 1.5 to 3 cm above the soil surface. […] The treated containers are placed on greenhouse benches, watered such that the water level is maintained as stated above, and cared for in accordance with conventional greenhouse procedures.

Compound | herbicidal rating, ORYSAT (rice tolerance)
Cn1c(C(F)(F)F)cc(=O)n(-c2ccc3snc(-c4cccnc4)c3c2)c1=O [Example 11] | 0.0
Cn1c(C(F)(F)F)cc(=O)n(-c2ccc3c(c2)C(c2cccc[n+]2[O-])=NS3(=O)=O)c1=O [Example 15] | 0.0

From patent publication US6706663B2, “Herbicidal 3-heterocyclic substituted benzisothiazole and benzisoxazole compounds” (Wyeth, priority 2000, dated 2004)
